Target: T1, hRUP25 (Homo sapiens, UniProt Q8TDS4)
T1 construct: expressed in transfected cells; host or cells: CHO cells, stably transfected
Test: cAMP Whole Cell assay (Flash Plate Adenylyl Cyclase kit) in CHO cells stably transfected with hRUP25
Format: cell-based
Conditions: CHO cells stably expressing hRUP25; average of two (2) trials
Description: A modified Flash Plate™ Adenylyl Cyclase kit (New England Nuclear, Cat. No. SMP004A) was utilized for direct identification of candidate compounds as agonists to hRUP25 (Seq. Id. Nos. 1 & 2) in accordance with the following protocol:
CHO cells stably transfected with an expression vector encoding hRUP25 and cultured under condition permissive for cell surface expression of the encoded hRUP25 receptor were harvested from flasks via non-enzymatic means. The cells were washed in PBS and resuspended in the manufacturer's Assay Buffer. Live cells were counted using a hemacytometer and Trypan blue exclusion, and the cell concentration was adjusted to 2×10^6 cells/ml. cAMP standards and Detection Buffer (comprising 2 μCi of tracer [^125I]-cAMP (100 μl) to 11 ml Detection Buffer) were prepared and maintained in accordance with the manufacturer's instructions. Candidate compounds identified as per above (if frozen, thawed at room temperature) were added to their respective wells (preferably wells of a 96-well plate) at increasing concentrations (3 μl/well; 12 μM final assay concentration). […] Plates were counted in a Wallac MicroBeta™ plate reader using “Prot. #31” (as per manufacturer instructions).
The biological in vitro activity was determined using the cAMP Whole Cell method, one representative example is shown in the table below: […]

T1 sequence (Q8TDS4 whole entry): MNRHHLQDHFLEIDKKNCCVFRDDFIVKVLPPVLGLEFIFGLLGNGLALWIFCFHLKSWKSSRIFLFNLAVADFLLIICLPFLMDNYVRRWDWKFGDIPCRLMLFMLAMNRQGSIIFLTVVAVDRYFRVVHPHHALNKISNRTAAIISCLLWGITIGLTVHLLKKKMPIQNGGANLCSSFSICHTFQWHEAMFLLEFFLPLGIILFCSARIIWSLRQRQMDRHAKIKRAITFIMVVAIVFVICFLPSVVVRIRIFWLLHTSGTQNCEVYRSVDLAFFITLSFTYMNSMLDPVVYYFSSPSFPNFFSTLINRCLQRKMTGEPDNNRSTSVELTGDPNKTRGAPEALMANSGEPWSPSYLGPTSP

- IC50: 900 nM
SMILES: CCCCc1[nH]nc(C(=O)O)c1F [Compound 8, 5-Butyl-4-fluoro-1H-pyrazole-3-carboxylic acid]

— patent US20060167270A1, “5-substituted 2h-pyrazone-3-carbixylic acid derivatives as antilipolytic agents for the treatment of metabolic-related disorders such as dyslipidemia” (Arena Pharmaceuticals Inc., priority 2002, published 2006)
